US20250195521A1 (Revolution Medicines, Inc., priority 2020, published 2025)
Where two headings read alike, the source gives them in different places.

What was measured:
[1] = tested on: NCI-H358 cells (K-Ras G12C); experiment: CellTiter-Glo cell viability, NCI-H358; assay type: cell-based, human; details: Homo sapiens, NCI-H358, 120 h, read-out: H358 Cell Viability IC50
Procedure, shortened: (§1)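 Endpoint: CellTiter-Glo luminescence on day 5, following ~30 min at room temperature. Data as (sample/mean DMSO)×100, four-parameter logistic fit.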

[2] = tested on: Capan-1 cells (K-Ras G12V); experiment: CellTiter-Glo cell viability, Capan-1; assay type: cell-based, human; details: Homo sapiens, CAPAN-1, 120 h, read-out: Capan-1 Cell Viability IC50
Procedure, shortened: as §1

KRAS G13C = KRAS G13C (Homo sapiens (Human), UniProt P01116+P62937, G13C); experiment: Ras-Raf disruption/FRET/MOA assay (BRAF RBD, Cyclophilin A); assay type: biochemical; details: read-out: KRAS G13C FRET IC50
Sequence of KRAS G13C (P01116 other isoform, or with tags, fused parts or gaps G13C): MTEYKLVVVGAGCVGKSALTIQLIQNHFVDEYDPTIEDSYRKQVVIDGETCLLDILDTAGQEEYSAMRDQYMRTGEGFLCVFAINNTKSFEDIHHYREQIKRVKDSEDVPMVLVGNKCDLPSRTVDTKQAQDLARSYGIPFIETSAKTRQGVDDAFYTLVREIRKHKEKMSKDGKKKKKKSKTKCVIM
Sequence of KRAS G13C (P62937 whole entry): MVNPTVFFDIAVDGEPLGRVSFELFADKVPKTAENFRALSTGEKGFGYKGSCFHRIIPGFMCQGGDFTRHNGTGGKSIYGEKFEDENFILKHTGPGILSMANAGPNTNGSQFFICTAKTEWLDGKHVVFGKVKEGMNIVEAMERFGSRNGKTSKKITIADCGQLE
Procedure, shortened: (§2)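 Measured: compound-facilitated Cyclophilin A:Ras complex blocking RAF RBD binding. Conditions: 12.5 nM Ras-GMPPNP, 50 nM BRAF RBD, 25 μM CypA, 3 h plus 1.5 h detection. Output: IC50 from TR-FRET ratio.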

KRAS G12C = KRAS G12C (Homo sapiens (Human), UniProt P01116+P62937, G12C); experiment: as above; assay type: biochemical; details: read-out: KRAS G12C FRET IC50
Sequence of KRAS G12C (P01116-2 other isoform, or with tags, fused parts or gaps G12C): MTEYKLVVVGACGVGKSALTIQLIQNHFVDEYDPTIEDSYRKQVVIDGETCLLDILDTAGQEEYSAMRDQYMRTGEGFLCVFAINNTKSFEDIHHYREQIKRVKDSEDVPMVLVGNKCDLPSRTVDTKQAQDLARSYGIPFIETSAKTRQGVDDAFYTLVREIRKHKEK
Sequence of KRAS G12C (P62937 whole entry): as the sequence (P62937 whole entry) above
Procedure, shortened: as §2

KRAS G13D = KRAS G13D (Homo sapiens (Human), UniProt P01116+P62937, G13D); experiment: as above; assay type: biochemical; details: read-out: KRAS G13D FRET data IC50
Sequence of KRAS G13D (P01116 other isoform, or with tags, fused parts or gaps G13D): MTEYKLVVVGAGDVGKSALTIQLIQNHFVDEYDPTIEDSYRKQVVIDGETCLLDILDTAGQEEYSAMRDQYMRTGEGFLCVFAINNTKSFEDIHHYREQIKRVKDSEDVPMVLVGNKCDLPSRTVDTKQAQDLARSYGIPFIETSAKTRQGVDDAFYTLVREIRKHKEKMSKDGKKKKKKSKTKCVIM
Sequence of KRAS G13D (P62937 whole entry): as the sequence (P62937 whole entry) above
Procedure, shortened: as §2

KRAS G12D = KRAS G12D (Homo sapiens (Human), UniProt P01116+P62937, G12D); experiment: as above; assay type: biochemical; details: read-out: KRAS G12D FRET IC50
Sequence of KRAS G12D (P01116 other isoform, or with tags, fused parts or gaps G12D): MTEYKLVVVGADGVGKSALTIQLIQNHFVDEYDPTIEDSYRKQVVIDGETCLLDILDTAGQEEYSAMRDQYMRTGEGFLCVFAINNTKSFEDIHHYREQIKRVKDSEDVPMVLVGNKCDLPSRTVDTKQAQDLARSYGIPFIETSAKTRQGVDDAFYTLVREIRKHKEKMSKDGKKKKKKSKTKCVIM
Sequence of KRAS G12D (P62937 whole entry): as the sequence (P62937 whole entry) above
Procedure, shortened: as §2

NRAS WT = NRAS WT (Homo sapiens (Human), UniProt P01111+P62937); experiment: as above; assay type: biochemical
Sequence of NRAS WT (P01111 whole entry): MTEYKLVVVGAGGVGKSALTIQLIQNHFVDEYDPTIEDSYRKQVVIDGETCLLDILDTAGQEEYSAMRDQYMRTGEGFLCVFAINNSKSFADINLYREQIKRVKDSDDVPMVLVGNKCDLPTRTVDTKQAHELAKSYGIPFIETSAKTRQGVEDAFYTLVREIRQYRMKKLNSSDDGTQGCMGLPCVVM
Sequence of NRAS WT (P62937 whole entry): as the sequence (P62937 whole entry) above
Procedure, shortened: (§3)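 TR-FRET read after 1.5 h with 10 nM anti-His Eu-W1024 and 50 nM anti-GST APC, following 3 h at 25 °C of GMPPNP-loaded His6-Ras (12.5 nM), GST-BRAF RBD (50 nM) and Cyclophilin A (25 μM) with compound from 30 μM final, 10 points, 3-fold. IC50 reported; pH 7.3 HEPES, 100 mM NaCl.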

KRAS Q61H = KRAS Q61H (Homo sapiens (Human), UniProt P01116+P62937, Q61H); experiment: as above; assay type: biochemical
Sequence of KRAS Q61H (P01116 other isoform, or with tags, fused parts or gaps Q61H): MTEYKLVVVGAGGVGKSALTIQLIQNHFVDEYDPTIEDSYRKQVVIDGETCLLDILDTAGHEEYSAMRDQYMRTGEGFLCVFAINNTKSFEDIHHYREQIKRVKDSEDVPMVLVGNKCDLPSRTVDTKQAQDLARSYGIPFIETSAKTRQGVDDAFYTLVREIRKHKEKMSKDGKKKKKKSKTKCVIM
Sequence of KRAS Q61H (P62937 whole entry): as the sequence (P62937 whole entry) above
Procedure, shortened: as §2

NRAS Q61K = NRAS Q61K (Homo sapiens (Human), UniProt P01111+P62937, Q61K); experiment: as above; assay type: biochemical
Sequence of NRAS Q61K (P01111 whole entry Q61K): as the sequence (P01111 whole entry) above, with Q61K counted along it
Sequence of NRAS Q61K (P62937 whole entry): as the sequence (P62937 whole entry) above
Procedure, shortened: as §3

KRAS G12S = KRAS G12S (Homo sapiens (Human), UniProt P01116+P62937, G12S); experiment: as above; assay type: biochemical; details: read-out: KRAS G12S FRET IC50
Sequence of KRAS G12S (P01116 other isoform, or with tags, fused parts or gaps G12S): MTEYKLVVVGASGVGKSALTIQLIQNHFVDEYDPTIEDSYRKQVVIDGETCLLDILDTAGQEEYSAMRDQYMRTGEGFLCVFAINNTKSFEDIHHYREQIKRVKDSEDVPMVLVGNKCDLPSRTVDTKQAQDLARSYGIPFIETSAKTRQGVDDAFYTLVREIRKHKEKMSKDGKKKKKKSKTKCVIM
Sequence of KRAS G12S (P62937 whole entry): as the sequence (P62937 whole entry) above
Procedure, shortened: as §2

NRAS G12C = NRAS G12C (Homo sapiens (Human), UniProt P01111+P62937, G12C); experiment: as above; assay type: biochemical; details: read-out: NRAS G12C FRET data IC50
Sequence of NRAS G12C (P01111 whole entry G12C): as the sequence (P01111 whole entry) above, with G12C counted along it
Sequence of NRAS G12C (P62937 whole entry): as the sequence (P62937 whole entry) above
Procedure, shortened: as §3

NRAS Q61R = NRAS Q61R (Homo sapiens (Human), UniProt P01111+P62937, Q61R); experiment: as above; assay type: biochemical
Sequence of NRAS Q61R (P01111 whole entry Q61R): as the sequence (P01111 whole entry) above, with Q61R counted along it
Sequence of NRAS Q61R (P62937 whole entry): as the sequence (P62937 whole entry) above
Procedure, shortened: as §3

KRAS G12V = KRAS G12V (Homo sapiens (Human), UniProt P01116+P62937, G12V); experiment: as above; assay type: biochemical; details: read-out: KRAS G12V FRET IC50
Sequence of KRAS G12V (P01116 other isoform, or with tags, fused parts or gaps G12V): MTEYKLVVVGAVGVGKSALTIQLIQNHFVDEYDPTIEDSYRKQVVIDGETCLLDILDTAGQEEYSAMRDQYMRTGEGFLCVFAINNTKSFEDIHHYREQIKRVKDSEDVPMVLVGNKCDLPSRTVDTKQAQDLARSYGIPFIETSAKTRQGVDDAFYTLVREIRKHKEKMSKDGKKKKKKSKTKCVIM
Sequence of KRAS G12V (P62937 whole entry): as the sequence (P62937 whole entry) above
Procedure, shortened: as §2

KRAS WT = KRAS WT (Homo sapiens (Human), UniProt P01116+P62937); experiment: as above; assay type: biochemical; details: read-out: KRAS WT FRET data IC50
Sequence of KRAS WT (P01116 other isoform, or with tags, fused parts or gaps): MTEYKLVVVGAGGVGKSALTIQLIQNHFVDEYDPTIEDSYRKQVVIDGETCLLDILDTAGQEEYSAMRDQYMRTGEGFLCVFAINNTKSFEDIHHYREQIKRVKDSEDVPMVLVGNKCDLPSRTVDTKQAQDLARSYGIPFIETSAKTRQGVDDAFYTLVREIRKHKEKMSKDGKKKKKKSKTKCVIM
Sequence of KRAS WT (P62937 whole entry): as the sequence (P62937 whole entry) above
Procedure, shortened: as §2

SMILES | IC50 ([1]; K-Ras G12C, 5-day treatment) [nM] | IC50 (KRAS G13C) [nM] | IC50 (KRAS G12C) [nM] | IC50 (KRAS G13D) [nM] | IC50 (KRAS G12D) [nM] | IC50 (NRAS WT) [nM] | IC50 (KRAS Q61H) [nM] | IC50 (NRAS Q61K) [nM] | IC50 (KRAS G12S) [nM] | IC50 (NRAS G12C) [nM] | IC50 (NRAS Q61R) [nM] | IC50 (KRAS G12V) [nM] | IC50 (KRAS WT) [nM] | IC50 ([2]; K-Ras G12V, 5-day treatment) [nM] | IC50 [1] [nM] | IC50 [2] [nM]
CCn1c(-c2cccnc2[C@H](C)OC)c2c3cc(ccc31)-c1csc(n1)C[C@H](NC(=O)[C@H](C(C)C)N1CCC3(COC3)C1)C(=O)N1CCC[C@H](N1)C(=O)OCC(C)(C)C2 [Compound A561] | < 10 | 100 to 1000 | 10 to 100 | 100 to 1000 | 100 to 1000 | 10 to 100 | 10 to 100 | 10 to 100 | 10 to 100 | 10 to 100 | 10 to 100 | 100 to 1000 | 10 to 100 | 10 to 100 |  | 
CCn1c(-c2cccnc2[C@H](C)OC)c2c3cc(ccc31)-c1csc(n1)C[C@H](NC(=O)[C@H](C(C)C)N(C)C(=O)N(C)[C@@H]1CCN(C)C1)C(=O)N1CCC[C@H](N1)C(=O)OCC(C)(C)C2 [Compound A564] | 10 to 100 | 100 to 1000 | 100 to 1000 | 100 to 1000 | 100 to 1000 | 100 to 1000 | 10 to 100 | 100 to 1000 | 100 to 1000 | 100 to 1000 | 100 to 1000 | 100 to 1000 | 100 to 1000 | 100 to 1000 |  | 
CCn1c(-c2cccnc2[C@H](C)OC)c2c3cc(ccc31)-c1cc(cc(C(F)F)c1)C[C@H](NC(=O)[C@H](C(C)C)N(C)C(=O)[C@@H]1OCC[C@@H]1c1ccccc1)C(=O)N1CCC[C@H](N1)C(=O)OCC(C)(C)C2 [Compound A592] |  | 100 to 1000 | 100 to 1000 | 1000 to 10000 | 1000 to 10000 | 1000 to 10000 | 100 to 1000 | 100 to 1000 | 1000 to 10000 | 100 to 1000 | 1000 to 10000 | 1000 to 10000 | 1000 to 10000 |  | 100 to 1000 | 1000 to 10000
CCn1c(-c2cccnc2[C@H](C)OC)c2c3cc(ccc31)-c1cc(O)cc(c1)C[C@H](NC(=O)[C@H](C(C)C)N(C)C(=O)[C@@]1(F)CCN(C(=O)OC)C1)C(=O)N1CCC[C@H](N1)C(=O)OCC(C)(C)C2 [Compound A615] | 10 to 100 | 10 to 100 | 10 to 100 | 10 to 100 | 100 to 1000 | 10 to 100 | 10 to 100 | 100 to 1000 | 10 to 100 | 10 to 100 | 100 to 1000 | 10 to 100 | 10 to 100 | 10 to 100 |  | 

More lines, main results first:

IC50 ([1]; K-Ras G12C, 5-day treatment) [nM] | IC50 (KRAS G13C) [nM] | IC50 (KRAS G12C) [nM] | IC50 (KRAS G13D) [nM] | IC50 (KRAS G12D) [nM] | IC50 (NRAS WT) [nM] | IC50 (KRAS Q61H) [nM] | IC50 (NRAS Q61K) [nM] | IC50 (KRAS G12S) [nM] | IC50 (NRAS G12C) [nM] | IC50 (NRAS Q61R) [nM] | IC50 (KRAS G12V) [nM] | IC50 (KRAS WT) [nM] | SMILES | IC50 ([2]; K-Ras G12V, 5-day treatment) [nM] | IC50 [1] [nM] | IC50 [2] [nM]
10 to 100 | 100 to 1000 | 100 to 1000 | 100 to 1000 | 100 to 1000 | 100 to 1000 | 10 to 100 | 100 to 1000 | 100 to 1000 | 100 to 1000 | 100 to 1000 | 100 to 1000 | 100 to 1000 | CCn1c(-c2cccnc2[C@H](C)OC)c2c3cc(ccc31)-c1csc(n1)C[C@H](NC(=O)[C@H](C(C)C)N(C)C(=O)N1CCCC3(CN(C)C3)C1)C(=O)N1CCC[C@H](N1)C(=O)OCC(C)(C)C2 [Compound A589] | 100 to 1000 |  | 
100 to 1000 | 100 to 1000 | 100 to 1000 | 100 to 1000 | 100 to 1000 | 100 to 1000 | 100 to 1000 | 100 to 1000 | 100 to 1000 | 100 to 1000 | 100 to 1000 | 1000 to 10000 | 100 to 1000 | CCn1c(-c2cccnc2[C@H](C)OC)c2c3cc(ccc31)-c1csc(n1)C[C@H](NC(=O)[C@H](C(C)C)N(C)C(=O)N(C)C1CN(C)C1)C(=O)N1CCC[C@H](N1)C(=O)OCC(C)(C)C2 [Compound A611] | 100 to 1000 |  | 
